In assay [1] the target is T1, Nociceptin receptor (Homo sapiens, UniProt P41146). Put plainly: Displacement of [125I]Tyr14-nociceptin from human NOP receptor expressed in human HEK293 cells after 90 mins by scintillation counting.
For assay [2], the species on record is Homo sapiens. As to the kind of experiment: Selectivity ratio of IC50 for human mu opioid receptor to IC50 for human NOP receptor.
In assay [3] the target is Kappa-type opioid receptor (Homo sapiens, UniProt P41145). As to the kind of experiment: Displacement of [3H]-diprenorphine from human kappa opioid receptor expressed in human HEK293 cells after 2 hrs by scintillation counting.
Sequence of Kappa-type opioid receptor (P41145 whole entry): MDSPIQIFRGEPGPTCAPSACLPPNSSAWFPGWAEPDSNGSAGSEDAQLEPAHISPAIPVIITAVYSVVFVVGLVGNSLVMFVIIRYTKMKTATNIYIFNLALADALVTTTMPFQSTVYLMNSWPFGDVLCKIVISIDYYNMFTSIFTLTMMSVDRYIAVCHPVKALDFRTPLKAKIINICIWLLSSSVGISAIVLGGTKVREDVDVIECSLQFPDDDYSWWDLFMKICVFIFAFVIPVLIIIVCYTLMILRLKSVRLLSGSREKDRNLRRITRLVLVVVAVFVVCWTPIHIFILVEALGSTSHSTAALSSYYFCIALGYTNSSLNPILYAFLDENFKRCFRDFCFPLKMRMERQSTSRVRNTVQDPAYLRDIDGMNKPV
The target in assay [4] is Delta-type opioid receptor (Homo sapiens) (UniProt P41143). As to the kind of experiment: Displacement of [3H]-naltrindole from human delta opioid receptor expressed in human HEK293 cells after 2 hrs by scintillation counting. The format is cell-based.
Sequence of Delta-type opioid receptor (Homo sapiens) (P41143 whole entry): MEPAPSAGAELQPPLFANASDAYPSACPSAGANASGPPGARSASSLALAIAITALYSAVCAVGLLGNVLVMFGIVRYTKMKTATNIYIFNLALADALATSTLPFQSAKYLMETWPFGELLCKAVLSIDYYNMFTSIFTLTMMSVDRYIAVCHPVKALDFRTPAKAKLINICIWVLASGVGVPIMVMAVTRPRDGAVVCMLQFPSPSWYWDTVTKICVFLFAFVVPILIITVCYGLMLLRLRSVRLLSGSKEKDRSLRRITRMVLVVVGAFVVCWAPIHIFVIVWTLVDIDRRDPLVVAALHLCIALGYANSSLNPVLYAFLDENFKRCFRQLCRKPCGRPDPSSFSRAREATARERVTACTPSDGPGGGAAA
Assay [5] has as its target T1, Nociceptin receptor. As to the kind of experiment: Antagonist activity at human NOP receptor expressed in human HEK293 cells assessed as inhibition of GTPgammaS binding in presence of 300 nM GDP relative to control. The format is functional, cell-based.
The species named for assay [6] is Homo sapiens. As to the kind of experiment: Selectivity ratio of IC50 for human kappa opioid receptor to IC50 for human NOP receptor.
For a further assay, the target named is Mu-type opioid receptor (Homo sapiens, UniProt P35372). As to the kind of experiment: Displacement of [3H]-naltrindole from human mu opioid receptor expressed in CHO cells after 2 hrs by scintillation counting. The format is cell-based.
Sequence of Mu-type opioid receptor (P35372 whole entry): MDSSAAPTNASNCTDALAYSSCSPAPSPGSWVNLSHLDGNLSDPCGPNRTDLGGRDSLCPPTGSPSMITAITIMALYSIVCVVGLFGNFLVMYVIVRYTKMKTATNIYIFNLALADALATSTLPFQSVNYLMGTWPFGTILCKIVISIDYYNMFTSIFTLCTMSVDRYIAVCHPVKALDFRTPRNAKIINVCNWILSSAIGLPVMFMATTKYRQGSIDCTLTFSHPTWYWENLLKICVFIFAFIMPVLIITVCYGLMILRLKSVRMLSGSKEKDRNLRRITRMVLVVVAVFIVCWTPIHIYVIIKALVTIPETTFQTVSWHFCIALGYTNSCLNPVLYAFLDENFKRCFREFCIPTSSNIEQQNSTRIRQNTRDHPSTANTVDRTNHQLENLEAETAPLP

Activity calls are given as the source filed them. No cut-off for these calls is given here.

T1 sequence (P41146 whole entry): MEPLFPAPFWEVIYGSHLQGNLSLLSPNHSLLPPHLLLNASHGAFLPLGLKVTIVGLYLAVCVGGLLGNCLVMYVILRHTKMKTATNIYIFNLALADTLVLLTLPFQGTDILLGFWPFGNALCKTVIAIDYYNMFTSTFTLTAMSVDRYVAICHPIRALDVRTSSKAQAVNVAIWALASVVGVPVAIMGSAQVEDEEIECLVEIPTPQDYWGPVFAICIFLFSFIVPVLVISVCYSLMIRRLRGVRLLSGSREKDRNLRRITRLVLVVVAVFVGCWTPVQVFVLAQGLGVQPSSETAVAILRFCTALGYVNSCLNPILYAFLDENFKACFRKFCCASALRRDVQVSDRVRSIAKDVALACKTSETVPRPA

As for `Cc1cc(N)c2cc(NC(=O)c3ccccc3COc3ccc(CNCCCCNCc4ccc(OCc5ccccc5C(=O)Nc5ccc6nc(C)cc(N)c6c5)cc4)cc3)ccc2n1`, the IC50 on Nociceptin receptor [1] was determined as 0.0566 µM; in assay [3] it was 1.09 µM; on Mu-type opioid receptor it was 1.59 µM. The Ratio IC50 in the assay filed under Homo sapiens [2] is 39; in the assay filed under Homo sapiens [6], 27. Moreover, in assay [4], the outcome was inactive. Besides, the result at Nociceptin receptor [5] was Active.

In turn, `CCCCCC/N=C/c1ccc(OCc2ccccc2C(=O)Nc2ccc3nc(C)cc(N)c3c2)cc1` had a half-maximal inhibitory concentration (IC50) on Nociceptin receptor [1] of 0.209 µM. The result in assay [4] was inactive. On Nociceptin receptor [5], the outcome was Active.

Consider `CCc1ccc(OCc2ccccc2C(=O)Nc2ccc3nc(C)cc(N)c3c2)cc1`, for which the IC50 was determined as 0.03 µM at Nociceptin receptor [1], 7.51 µM in assay [3] and 1.51 µM on Mu-type opioid receptor. The Ratio IC50 in the assay filed under Homo sapiens [2] is 50; in the assay filed under Homo sapiens [6], 250. Besides, the result in assay [4] was inactive. Further, on Nociceptin receptor [5], the result was Active.

In turn, `CCCCCCC/N=C/c1ccc(OCc2ccccc2C(=O)Nc2ccc3nc(C)cc(N)c3c2)cc1` registered an IC50 at Nociceptin receptor [1] of 0.142 µM. In assay [4], the result was inactive. Also, on Nociceptin receptor [5], the outcome was Active.

In the case of `CCCNCc1ccc(OCc2ccccc2C(=O)Nc2ccc3nc(C)cc(N)c3c2)cc1`, the IC50 on Nociceptin receptor [1] stood at 0.083 µM; in assay [3] it was 3.08 µM; on Mu-type opioid receptor, 3.35 µM. Moreover, the figures for the Ratio IC50 in the assay listed under Homo sapiens [2] and in the assay filed under Homo sapiens [6] were 49 and 45, respectively. In addition, the result in assay [4] was inactive. At Nociceptin receptor [5], the outcome was Active.

For `Cc1cc(N)c2cc(NC(=O)c3ccccc3COc3ccc(CNCCCCCCCN)cc3)ccc2n1`, the IC50 on Nociceptin receptor [1] turned out to be 0.246 µM; in assay [3], 0.998 µM; at Mu-type opioid receptor, 9.98 µM. Moreover, the Ratio IC50 in the assay filed under Homo sapiens [2] amounted to 57; in the assay listed under Homo sapiens [6], 5.7. The outcome in assay [4] was inactive. Further, the result at Nociceptin receptor [5] was Active.

Turning to `CCCCCCCC/N=C/c1ccc(OCc2ccccc2C(=O)Nc2ccc3nc(C)cc(N)c3c2)cc1`, at Nociceptin receptor [1], the half-maximal inhibitory concentration (IC50) worked out at 0.147 µM. Besides, in assay [4], the result was inactive. At Nociceptin receptor [5], the outcome was Active.

At Nociceptin receptor [1], `CCCCCCCCCC/N=C/c1ccc(OCc2ccccc2C(=O)Nc2ccc3nc(C)cc(N)c3c2)cc1` yielded an IC50 of 0.184 µM. Also, in assay [4], the outcome was inactive. Further, the result at Nociceptin receptor [5] was Active.

At Nociceptin receptor [1], `CCCCCCCCC/N=C/c1ccc(OCc2ccccc2C(=O)Nc2ccc3nc(C)cc(N)c3c2)cc1` returned an IC50 of 0.154 µM. In assay [4], the result was inactive. Also, the outcome at Nociceptin receptor [5] was Active.

Turning to `Cc1cc(N)c2cc(NC(=O)c3ccccc3COc3ccc(CNCCCCN)cc3)ccc2n1`, the figures for the IC50 (at Nociceptin receptor [1]; in assay [3]; on Mu-type opioid receptor) were 0.8 µM, 4.26 µM and 5.33 µM, respectively. For the same compound, the values for the Ratio IC50 in the assay listed under Homo sapiens [2] and in the assay listed under Homo sapiens [6] were 9 and 7.2, respectively. In assay [4], the outcome was inactive. Moreover, the outcome at Nociceptin receptor [5] was Active.

In the case of `Cc1cc(N)c2cc(NC(=O)c3ccccc3COc3ccc(/C=N/CCCCCCC/N=C/c4ccc(OCc5ccccc5C(=O)Nc5ccc6nc(C)cc(N)c6c5)cc4)cc3)ccc2n1`, the IC50 at Nociceptin receptor [1] was 0.0631 µM. Besides, the result in assay [4] was inactive. In addition, at Nociceptin receptor [5], the result was Active.

For `CCCCNCc1ccc(OCc2ccccc2C(=O)Nc2ccc3nc(C)cc(N)c3c2)cc1`, the IC50 at Nociceptin receptor [1] was 1.12 µM; in assay [3], 5.92 µM; at Mu-type opioid receptor it was 5.11 µM. The Ratio IC50 in the assay listed under Homo sapiens [2] is 8.6; in the assay filed under Homo sapiens [6], 10. The result in assay [4] was inactive. For the same compound, the result on Nociceptin receptor [5] was Active.

Turning to `CCC/N=C/c1ccc(OCc2ccccc2C(=O)Nc2ccc3nc(C)cc(N)c3c2)cc1`, the IC50 on Nociceptin receptor [1] amounted to 0.0989 µM. Moreover, in assay [4], the outcome was inactive. Besides, the result on Nociceptin receptor [5] was Active.

For `Cc1cc(N)c2cc(NC(=O)c3ccccc3COc3ccc(C=O)cc3)ccc2n1`, the half-inhibitory concentration (IC50) at Nociceptin receptor [1] is 0.207 µM. For the same compound, in assay [4], the result was inactive. The outcome at Nociceptin receptor [5] was Active.

For `Cc1cc(N)c2cc(NC(=O)c3ccccc3COc3ccc(CNCCCCCCCCNCc4ccc(OCc5ccccc5C(=O)Nc5ccc6nc(C)cc(N)c6c5)cc4)cc3)ccc2n1`, the figures for the half-maximal inhibitory concentration (IC50) (at Nociceptin receptor [1]; in assay [3]; on Mu-type opioid receptor) were 0.0316 µM, 1.27 µM and 1.9 µM, respectively. In addition, the Ratio IC50 in the assay listed under Homo sapiens [2] stood at 56; in the assay filed under Homo sapiens [6], 37. The result in assay [4] was inactive. The result on Nociceptin receptor [5] was Active.

On to `Cc1cc(N)c2cc(NC(=O)c3ccccc3COc3ccc(CNCCCCCCN)cc3)ccc2n1`, for which the figures for the 50% inhibitory concentration (IC50) (on Nociceptin receptor [1]; in assay [3]; on Mu-type opioid receptor) were 1.11 µM, 1.22 µM and 6 µM, respectively. Besides, the Ratio IC50 in the assay filed under Homo sapiens [2] stood at 7.4; in the assay listed under Homo sapiens [6], 1.5. Moreover, the result in assay [4] was inactive. Moreover, the result at Nociceptin receptor [5] was Active.

Turning to `Cc1cc(N)c2cc(NC(=O)c3ccccc3COc3ccc(CNCCCCCCCCN)cc3)ccc2n1`, the concentration for half-maximal inhibition (IC50) was found to be 0.144 µM at Nociceptin receptor [1], 0.872 µM in assay [3] and 0.325 µM at Mu-type opioid receptor. Besides, the values for the Ratio IC50 in the assay listed under Homo sapiens [2] and in the assay filed under Homo sapiens [6] were 3.2 and 8.6, respectively. In assay [4], the result was inactive. Also, the result at Nociceptin receptor [5] was Active.

In the case of `CCCCCCNCc1ccc(OCc2ccccc2C(=O)Nc2ccc3nc(C)cc(N)c3c2)cc1`, the IC50 on Nociceptin receptor [1] is 1.22 µM; in assay [3] it was 1.16 µM; on Mu-type opioid receptor, 2.59 µM. Also, the Ratio IC50 in the assay listed under Homo sapiens [2] was 2.6; in the assay listed under Homo sapiens [6] it was 1.2. The result in assay [4] was inactive. Besides, the result on Nociceptin receptor [5] was Active.

With `Cc1cc(N)c2cc(NC(=O)c3ccccc3COc3ccc(CNCCCNCc4ccc(OCc5ccccc5C(=O)Nc5ccc6nc(C)cc(N)c6c5)cc4)cc3)ccc2n1`, the IC50 on Nociceptin receptor [1] was 0.0765 µM; in assay [3], 5.48 µM; at Mu-type opioid receptor it was 0.468 µM. The Ratio IC50 in the assay filed under Homo sapiens [2] was determined as 15; in the assay filed under Homo sapiens [6] it was 177. In addition, in assay [4], the result was inactive. Further, the result at Nociceptin receptor [5] was Active.

As to `CCCCCCCNCc1ccc(OCc2ccccc2C(=O)Nc2ccc3nc(C)cc(N)c3c2)cc1`, the IC50 at Nociceptin receptor [1] is 0.668 µM; in assay [3], 1.85 µM; on Mu-type opioid receptor, 1.98 µM. Further, the Ratio IC50 is 6.6 in the assay listed under Homo sapiens [2] and 6.2 in the assay listed under Homo sapiens [6]. Also, the outcome in assay [4] was inactive. On Nociceptin receptor [5], the outcome was Active.

The compound `Cc1cc(N)c2cc(NC(=O)c3ccccc3COc3ccc(CN)cc3)ccc2n1` gave an IC50 on Nociceptin receptor [1] of 0.116 µM. The result in assay [4] was inactive. The outcome at Nociceptin receptor [5] was Active.

Regarding `Cc1cc(N)c2cc(NC(=O)c3ccccc3COc3ccc(CNCCCCCNCc4ccc(OCc5ccccc5C(=O)Nc5ccc6nc(C)cc(N)c6c5)cc4)cc3)ccc2n1`, the results for the IC50 (at Nociceptin receptor [1]; in assay [3]; on Mu-type opioid receptor) were 0.0762 µM, 1.5 µM and 2.51 µM, respectively. Moreover, the Ratio IC50 in the assay filed under Homo sapiens [2] worked out at 46; in the assay listed under Homo sapiens [6] it was 28. The result in assay [4] was inactive. Further, the result at Nociceptin receptor [5] was Active.

At Nociceptin receptor [1], `CCCCC/N=C/c1ccc(OCc2ccccc2C(=O)Nc2ccc3nc(C)cc(N)c3c2)cc1` registered an IC50 of 0.186 µM. In assay [4], the outcome was inactive. Moreover, the result at Nociceptin receptor [5] was Active.

On Nociceptin receptor [1], `Cc1cc(N)c2cc(NC(=O)c3ccccc3COc3ccc(/C=N/CCCCCCCCCC/N=C/c4ccc(OCc5ccccc5C(=O)Nc5ccc6nc(C)cc(N)c6c5)cc4)cc3)ccc2n1` returned an IC50 of 0.0821 µM. Further, the result in assay [4] was inactive. Also, the result at Nociceptin receptor [5] was Active.

Consider `Cc1cc(N)c2cc(NC(=O)c3ccccc3COc3ccc(/C=N/CCCCC/N=C/c4ccc(OCc5ccccc5C(=O)Nc5ccc6nc(C)cc(N)c6c5)cc4)cc3)ccc2n1`, for which, at Nociceptin receptor [1], the half-maximal inhibitory concentration (IC50) was found to be 0.0509 µM. For the same compound, the result in assay [4] was inactive. The outcome on Nociceptin receptor [5] was Active.

The compound `Cc1cc(N)c2cc(NC(=O)c3ccccc3COc3ccc(/C=N/CCCCCCCCC/N=C/c4ccc(OCc5ccccc5C(=O)Nc5ccc6nc(C)cc(N)c6c5)cc4)cc3)ccc2n1` gave an IC50 on Nociceptin receptor [1] of 0.0827 µM. The result in assay [4] was inactive. Further, at Nociceptin receptor [5], the outcome was Active.

The compound `Cc1cc(N)c2cc(NC(=O)c3ccccc3COc3ccc(/C=N/CCCCCC/N=C/c4ccc(OCc5ccccc5C(=O)Nc5ccc6nc(C)cc(N)c6c5)cc4)cc3)ccc2n1` showed a 50% inhibitory concentration (IC50) at Nociceptin receptor [1] of 0.0833 µM. The outcome in assay [4] was inactive. The outcome at Nociceptin receptor [5] was Active.

In the case of `CCCC/N=C/c1ccc(OCc2ccccc2C(=O)Nc2ccc3nc(C)cc(N)c3c2)cc1`, the IC50 on Nociceptin receptor [1] was 0.309 µM. Besides, the outcome in assay [4] was inactive. The outcome on Nociceptin receptor [5] was Active.

On Nociceptin receptor [1], `Cc1cc(N)c2cc(NC(=O)c3ccccc3COc3ccc(/C=N/CCCC/N=C/c4ccc(OCc5ccccc5C(=O)Nc5ccc6nc(C)cc(N)c6c5)cc4)cc3)ccc2n1` had a concentration for half-maximal inhibition (IC50) of 0.0356 µM. Besides, the outcome in assay [4] was inactive. For the same compound, at Nociceptin receptor [5], the result was Active.

The compound `Cc1cc(N)c2cc(NC(=O)c3ccccc3COc3ccc(/C=N/CCC/N=C/c4ccc(OCc5ccccc5C(=O)Nc5ccc6nc(C)cc(N)c6c5)cc4)cc3)ccc2n1` showed an IC50 at Nociceptin receptor [1] of 0.048 µM. For the same compound, the outcome in assay [4] was inactive. The result at Nociceptin receptor [5] was Active.

`Cc1cc(N)c2cc(NC(=O)c3ccccc3COc3ccc(/C=N/CCCCCCCC/N=C/c4ccc(OCc5ccccc5C(=O)Nc5ccc6nc(C)cc(N)c6c5)cc4)cc3)ccc2n1` yielded an IC50 on Nociceptin receptor [1] of 0.114 µM. Moreover, the result in assay [4] was inactive. Moreover, the result on Nociceptin receptor [5] was Active.

The values are drawn from ChEMBL document CHEMBL1759965, “Synthesis and pharmacological evaluation of bivalent antagonists of the nociceptin opioid receptor” (Eur J Med Chem, 2011).
